Experimental data: publication PMC5062083, “Development of a one-pot assay for screening and identification of Mur pathway inhibitors in Mycobacterium tuberculosis” (Scientific Reports, 2016)
Like-named read-outs stand apart in the source and are kept apart here.

Experiments:
[1] = tested on: C=C(OP(=O)(O)O)C(=O)O; experiment: purified protein, by the assay type; details: pH 7.0; 37.0 °C
[2] = tested on: Mur pathway (MurA-MurF) enzymes from Mtb; experiment: one-pot assay reconstructing the Mur pathway (Pi release), inhibitor studies; format: biochemical, Mycobacterium tuberculosis; details: for Percentage inhibition, one-pot assay: at 100 μM concentration of compound; for IC50: six compound concentrations 5-100 μM, 15 min pre-incubation, 30 min at 37 °C, 5% DMSO control
[3] = target: MurA (Mycobacterium tuberculosis, UniProt P9WJM1); experiment: inhibition of individual Mur enzyme: MurA; format: biochemical; details: for remaining activity at 100 µM: at 100 μM compound, vs 'no drug' control (5% DMSO), read-out: RA (residual activity), MurA
Protocol: The reaction was performed in a micro-titer plate at 37 °C for 30 minutes and terminated by the addition of Pi Colorlock™ Assay reagent. Absorbance was measured at 630 nm and the amount of Pi released was calculated from the standard phosphate curve. […] The control reactions contained all the components except MurA. The net Pi was calculated by subtracting total Pi in the control reaction from the total Pi after the completion of the assay. To get a large assay window and to avoid saturation of Pi, optimization of assays were carried out at substrate concentrations so as not to exceed the assay signal beyond 2.0 absorbance units as recommended by the manufacturer of PiColorlock™ Assay kit.
(§1) Tested compounds at various concentrations (5–100 μM) were pre-incubated with enzymes for 15 mins, followed by the addition of remaining constituents of the assay. The final reaction mixture was incubated for 30 mins at 37 °C. To assess specific inhibition of Mur ligases, each of the ligase was pre-incubated with inhibitors separately and then added to the one-pot reaction mixture. The net Pi released was calculated as described earlier. In the ‘no drug’ control reaction, the organic solvent (DMSO) used in dissolving inhibitory compounds was added at 5% concentration to the one-pot assay, while Isoniazid, a standard anti-TB drug with no known effect on Mur activity, was inculded as another control to ascertain the specificity of the tested inhibitors in the study.

[4] = target: MurB (Mycobacterium tuberculosis, UniProt P9WJL9); experiment: inhibition of individual Mur enzyme: MurB; format: biochemical; details: for remaining activity at 100 µM: at 100 μM compound, vs 'no drug' control (5% DMSO), read-out: RA (residual activity), MurB
Protocol: To assay MurB activity, the MurA reaction after 30 mins of incubation was supplemented with 10 mM KCl, 0.2 mM NADPH and 60 nM of MurB enzyme in a total volume of 100 μl. The absorbance at 340 nm was monitored over 5 min to calculate the rate of NADPH oxidation. The control reaction contained all the components except MurB.
as §1

[5] = target: MurC (Mycobacterium tuberculosis, UniProt P9WJL7); experiment: inhibition of individual Mur enzyme: MurC; format: biochemical; details: for remaining activity at 100 µM: at 100 μM compound, vs 'no drug' control (5% DMSO), read-out: RA (residual activity), MurC
Protocol: (§2) Each Mur ligase reaction was performed at 37 °C with an incubation period of 1 h. To measure the activity of MurC, the completed MurB reaction was supplemented with 1 mM L-Alanine, 10 mM MgCl2 and 1 mM ATP. MurD-F ligase activities were performed sequentially, supplementing the prior reaction with 1 mM each of the required substrate (D-Glutamate, meso-Diaminopimelic acid and D -Alanine-D-Alanine, respectively). The control reaction contained all the components except the enzyme that was being tested (e.g. the control reaction for MurC assay contained all the components except MurC). For MurD and MurF reaction, purified MBP at 1 μg concentration was added to the reaction mixture instead of the enzymes. Estimation of net Pi was done as previously described in the MurA assay.
as §1

[6] = target: MurD (Mycobacterium tuberculosis, UniProt P9WJL5); experiment: inhibition of individual Mur enzyme: MurD; format: biochemical; details: for remaining activity at 100 µM: at 100 μM compound, vs 'no drug' control (5% DMSO), read-out: RA (residual activity), MurD
Protocol: as §2, §1

[7] = target: MurE (Mycobacterium tuberculosis, UniProt P9WJL3); experiment: inhibition of individual Mur enzyme: MurE; format: biochemical
[8] = target: MurF (Mycobacterium tuberculosis, UniProt P9WJL1); experiment: inhibition of individual Mur enzyme: MurF; format: biochemical
Protocol: as §2, §1

[9] = tested on: MurE from E.coli; parameters: method as in PMID 25851408; details: range stated jointly for MurE and MurF; cited from earlier work
[10] = tested on: Mur pathway (MurA-MurF) enzymes from Mtb; experiment: ESI-MS analysis of one-pot assay with inhibitor; format: biochemical, Mycobacterium tuberculosis; details: Fig. S5

Chain of MurE (P9WJL3 whole entry): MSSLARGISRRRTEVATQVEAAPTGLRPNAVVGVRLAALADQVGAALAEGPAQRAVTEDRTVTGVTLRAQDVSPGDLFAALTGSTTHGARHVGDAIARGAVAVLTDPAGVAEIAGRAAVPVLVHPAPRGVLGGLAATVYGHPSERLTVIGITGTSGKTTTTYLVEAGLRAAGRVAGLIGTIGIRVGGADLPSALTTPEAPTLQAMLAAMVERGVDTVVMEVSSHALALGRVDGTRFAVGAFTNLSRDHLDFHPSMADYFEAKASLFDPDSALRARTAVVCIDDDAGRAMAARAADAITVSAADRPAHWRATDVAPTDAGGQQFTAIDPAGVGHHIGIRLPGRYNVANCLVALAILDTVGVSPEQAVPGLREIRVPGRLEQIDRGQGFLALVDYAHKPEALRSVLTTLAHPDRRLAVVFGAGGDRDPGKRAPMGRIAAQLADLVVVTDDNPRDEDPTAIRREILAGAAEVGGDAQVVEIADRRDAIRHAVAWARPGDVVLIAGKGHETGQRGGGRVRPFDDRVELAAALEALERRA
Chain of MurB (P9WJL9 whole entry): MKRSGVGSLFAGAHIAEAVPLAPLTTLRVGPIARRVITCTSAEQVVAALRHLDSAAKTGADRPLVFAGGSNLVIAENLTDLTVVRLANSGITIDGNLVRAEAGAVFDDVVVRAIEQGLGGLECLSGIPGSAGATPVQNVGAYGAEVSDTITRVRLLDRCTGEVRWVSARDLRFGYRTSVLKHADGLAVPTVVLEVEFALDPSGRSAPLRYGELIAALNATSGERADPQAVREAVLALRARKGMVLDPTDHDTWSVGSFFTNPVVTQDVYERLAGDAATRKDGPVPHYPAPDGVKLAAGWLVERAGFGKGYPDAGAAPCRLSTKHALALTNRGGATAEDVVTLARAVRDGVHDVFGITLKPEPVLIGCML
Chain of MurD (P9WJL5 whole entry): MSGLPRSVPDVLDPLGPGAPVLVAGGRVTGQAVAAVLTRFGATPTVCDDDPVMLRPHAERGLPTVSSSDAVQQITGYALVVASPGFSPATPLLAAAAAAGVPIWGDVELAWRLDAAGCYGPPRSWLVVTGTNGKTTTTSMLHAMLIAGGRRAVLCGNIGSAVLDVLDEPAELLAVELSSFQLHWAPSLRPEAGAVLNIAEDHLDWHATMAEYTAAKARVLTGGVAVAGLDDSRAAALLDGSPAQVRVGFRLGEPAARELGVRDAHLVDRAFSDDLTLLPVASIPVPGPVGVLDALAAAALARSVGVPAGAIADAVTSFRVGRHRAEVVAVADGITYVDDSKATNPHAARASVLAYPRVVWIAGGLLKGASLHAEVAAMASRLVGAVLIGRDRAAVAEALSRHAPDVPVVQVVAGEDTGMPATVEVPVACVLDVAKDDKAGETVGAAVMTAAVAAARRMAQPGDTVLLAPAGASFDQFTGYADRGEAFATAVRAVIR
Chain of MurF (P9WJL1 whole entry): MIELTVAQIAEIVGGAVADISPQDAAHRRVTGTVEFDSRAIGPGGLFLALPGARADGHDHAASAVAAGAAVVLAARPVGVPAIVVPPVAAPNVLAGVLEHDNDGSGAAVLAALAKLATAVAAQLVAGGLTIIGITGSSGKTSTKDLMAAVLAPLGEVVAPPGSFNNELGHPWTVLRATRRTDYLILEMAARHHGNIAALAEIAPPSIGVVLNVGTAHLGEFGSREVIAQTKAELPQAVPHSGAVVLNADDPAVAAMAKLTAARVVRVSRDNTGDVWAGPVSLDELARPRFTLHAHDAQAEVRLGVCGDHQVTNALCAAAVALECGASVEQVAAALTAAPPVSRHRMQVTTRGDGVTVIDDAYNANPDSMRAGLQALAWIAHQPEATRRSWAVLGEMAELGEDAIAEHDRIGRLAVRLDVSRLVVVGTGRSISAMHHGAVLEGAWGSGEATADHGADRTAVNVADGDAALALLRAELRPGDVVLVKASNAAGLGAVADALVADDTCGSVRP
Chain of MurA (P9WJM1 whole entry): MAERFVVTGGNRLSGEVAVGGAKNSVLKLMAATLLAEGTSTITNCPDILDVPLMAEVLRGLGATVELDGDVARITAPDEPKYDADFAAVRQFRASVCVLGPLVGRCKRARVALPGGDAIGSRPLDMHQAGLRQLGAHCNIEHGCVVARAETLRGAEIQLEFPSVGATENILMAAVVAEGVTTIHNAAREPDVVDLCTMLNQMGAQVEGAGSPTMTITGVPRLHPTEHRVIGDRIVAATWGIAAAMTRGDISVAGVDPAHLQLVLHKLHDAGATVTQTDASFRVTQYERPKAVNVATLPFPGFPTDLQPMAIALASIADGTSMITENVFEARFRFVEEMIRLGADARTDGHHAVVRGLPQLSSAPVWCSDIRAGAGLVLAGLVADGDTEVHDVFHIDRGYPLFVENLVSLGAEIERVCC
Chain of MurC (P9WJL7 whole entry): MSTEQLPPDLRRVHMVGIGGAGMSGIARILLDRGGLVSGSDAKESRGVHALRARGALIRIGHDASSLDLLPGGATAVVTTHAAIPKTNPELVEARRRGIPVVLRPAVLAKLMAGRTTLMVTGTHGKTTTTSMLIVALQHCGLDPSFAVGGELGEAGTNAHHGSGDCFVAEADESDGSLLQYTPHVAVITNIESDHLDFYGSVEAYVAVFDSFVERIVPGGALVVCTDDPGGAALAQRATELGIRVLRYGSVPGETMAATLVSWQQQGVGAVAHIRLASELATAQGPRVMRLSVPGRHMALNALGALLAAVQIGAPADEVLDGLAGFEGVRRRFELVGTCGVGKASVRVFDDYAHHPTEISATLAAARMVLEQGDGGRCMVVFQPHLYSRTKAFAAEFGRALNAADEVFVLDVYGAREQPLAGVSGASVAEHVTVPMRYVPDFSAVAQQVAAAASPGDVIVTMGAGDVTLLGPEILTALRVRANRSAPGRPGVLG

Compound | Km [1] | Vmax [1] | Percentage inhibition, one-pot assay [2] | IC50 [2] | inhibition of MurA (in words) [3] | remaining activity at 100 µM [3] | inhibition of MurB (in words) [4] | remaining activity at 100 µM [4] | inhibition of MurC (in words) [5] | remaining activity at 100 µM [5] | inhibition of MurD (in words) [6] | remaining activity at 100 µM [6] | IC50 [7] | IC50 [8] | IC50 [9] | IC50 ([7]; six compound concentrations 5-100 μM, read-out: IC50, MurE) | final product (UDP-MurNAc pentapeptide) formation in one-pot assay by ESI-MS [10]
Mtb MurA (Mycobacterium tuberculosis H37Rv) | 527.8 µM | 0.173 µM/min | – | – | – | – | – | – | – | – | – | – | – | – | – | – | –
O=C(O)c1cc(-c2ccc(/C=C3/SC(=S)N(c4ccc([N+](=O)[O-])cc4)C3=O)o2)ccc1Cl [Compound 3] | – | – | 97% | 19.6 µM | marginal inhibition | 75% | no inhibition | > 100% | marginal inhibition | 66% | marginal inhibition | 88% | 61.6 µM | 45.4 µM | 11 to 16 µM | – | –
N[C@@H]1CON=C1O [D-Cycloserine, reference compound] | – | – | – | 74 µM | – | > 100% | – | > 100% | – | 64% | – | 72% | – | 67.1 µM | – | 97 µM | inhibition of final product formation
O=C(O)c1cc(-c2ccc(/C=C3/SC(=S)N(c4cccc([N+](=O)[O-])c4)C3=O)o2)ccc1Cl [Compound 4] | – | – | 93% | 8.25 µM | did not inhibit | > 100% | did not inhibit | > 100% | marginal inhibition | 73% | marginal inhibition | 85% | 17 µM | 25.8 µM | 11 to 16 µM | – | –
